From article PMC12333015, “Profiling the Impact of mGlu7/Elfn1 Protein Interactions on the Pharmacology of mGlu7 Allosteric Modulators” (ACS Chemical Neuroscience, 2025)
Like-named read-outs stand apart in the source and are kept apart here.

Key:
rat mGlu7 = molecular target: T1, rat mGlu7 (Rattus norvegicus, UniProt P35400); assay: Thallium flux assay, mGlu7/GIRK HEK293 cells cocultured with pcDNA3 vector control cells; type: cell-based; settings: for baseline Resp ± SEM, pcDNA / Maximal Resp ± SEM, pcDNA / response below baseline at inactive L-AP4 concentrations / % inhibition Resp ± SEM, pcDNA: 10 μM compound; for baseline Resp ± SEM, pcDNA: average response at bottom three L-AP4 concentrations, Percent L-AP4/pcDNA/DMSO Max; for Maximal Resp ± SEM, pcDNA: average response at top two L-AP4 concentrations, normalized to L-AP4 max with pcDNA/DMSO; for response below baseline at inactive L-AP4 concentrations: observed regardless of the presence of Elfn1; for % inhibition Resp ± SEM, pcDNA: of maximal L-AP4 response; for IC50: compound concentration-response in presence of 600 μM L-AP4 (EC80), read-out: compound pIC50 ± SEM, pcDNA (converted); for compound Min Resp ± SEM, pcDNA: minimal curve fit response, 600 μM L-AP4, maximal inhibition at 30 μM compound, normalized to 600 μM L-AP4 response; for Emax: HEK293, read-out: PAM Maximal response, pcDNA; for Emax / EC50: PAM concentration-response at an EC20 concentration of L-AP4; for Fold potentiation, pcDNA: fold potentiation of an EC20 concentration of L-AP4
T1 construct: expressed in transfected cells; host or cells: HEK293A cells stably expressing mGlu7 and GIRK1/2
Text: (§1) We began our evaluation of mGlu7 ligands in the presence and absence of Elfn1 by using a coculture system as previously described , with several modifications (Figure ). Cells expressing rat mGlu7 and coexpressing G protein inwardly rectifying potassium (GIRK) channels 1 and 2 were cocultured with cells expressing either an empty pcDNA3 vector control or a plasmid containing Elfn1 in the pcDNA3 backbone. We then evaluated the activity of the orthosteric agonist L-AP4 and measured effects on maximal response and pEC50. All responses were normalized to the maximal effect of L-AP4 in the presence of the pcDNA3 control plasmid.
(§2) 2 Assay design and workflow. (Left panel) Cells expressing rat mGlu7/GIRK (pink) were cocultured with pcDNA3 (blue) or Elfn1 (purple). […] (Right panel) The effect on the concentration–response curve in the presence (purple) or absence (blue) of Elfn1 can be seen by a change in efficacy, potency, and/or basal response.
(§3) HEK293A cells stably expressing mouse Elfn1 or pcDNA3 were maintained in growth medium containing 90% Dulbecco’s Modified Eagle Media (DMEM), 10% fetal bovine serum (FBS), 100 units/mL penicillin/streptomycin, 20 mM HEPES, 1 mM sodium pyruvate, 2 mM L-glutamine, 1× nonessential amino acids, and 700 μg/mL G418 sulfate. HEK mGlu7/GIRK cells were maintained in a growth medium with 90% DMEM/F12, 10% dialyzed FBS, 100 units/mL penicillin/streptomycin, 20 mM HEPES, 1 mM sodium pyruvate, 2 mM L-glutamine, 1× nonessential amino acids, 700 μg/mL G418 sulfate, and 600 ng/mL puromycin. All cell culture reagents were purchased from Invitrogen (Carlsbad, CA).
(§4) Thallium flux assays were performed as previously described. A mixture of HEK293A mGlu7/GIRK cells and pcDNA3 or Elfn1-expressing HEK293A cells (5000/15,000 cells/20 μL/well for agonist and PAM experiments; 7500/15,000 cells/20 μL/well for NAM experiments) was seeded in 384-well, amine-coated assay plates (Greiner Bio-One, Monroe, NC). Cells were incubated overnight in a humidified 5% CO2 cell culture incubator at 37 °C. […] Following a 1 h incubation at room temperature, the dye loading solution was replaced with 20 μL/well assay buffer and the plates were loaded into a Hamamatsu FDSS 7000 (Bridgewater, NJ). […] Thallium flux data were analyzed by first dividing each point in each wave by the first point in that wave and then subtracting the average of the vehicle control response. The slopes of these vehicle control-subtracted waves were calculated over ten data points beginning 2 s after thallium stimulus addition and fit to a three-parameter logistic equation in GraphPad Prism (La Jolla, CA). In most cases, the final data were normalized to the response of the mGlu7/pcDNA3 with vehicle and 5 mM L-AP4 unless otherwise noted. Potency (pEC50) and maximum responses (E max) induced by compounds were determined using a four-parameter logistical equation in Prism. Basal activity was calculated with data points at the three lowest test concentrations. Maximum activity was calculated with data points at two highest concentrations. All experiments were replicated at least three times in duplicate or triplicate.

mGlu7/Elfn1 = molecular target: T2, mGlu7/Elfn1 (Rattus norvegicus, UniProt P35400); assay: Thallium flux assay, mGlu7/GIRK HEK293 cells cocultured with Elfn1-expressing cells; type: cell-based, mouse Elfn1; settings: for baseline Resp ± SEM, Elfn1 / Maximal Resp ± SEM, Elfn1 / % inhibition Resp ± SEM, Elfn1: 10 μM compound; for baseline Resp ± SEM, Elfn1: average response at bottom three L-AP4 concentrations, Percent L-AP4/pcDNA/DMSO Max; for Maximal Resp ± SEM, Elfn1: average response at top two L-AP4 concentrations, normalized to L-AP4 max with pcDNA/DMSO; for % inhibition Resp ± SEM, Elfn1: of maximal L-AP4 response; for IC50: compound concentration-response in presence of 600 μM L-AP4 (EC80), read-out: compound pIC50 ± SEM, Elfn1 (converted); for compound Min Resp ± SEM, Elfn1: minimal curve fit response, 600 μM L-AP4, maximal inhibition at 30 μM compound, normalized to account for lower agonist max with Elfn1; for Emax: HEK293, read-out: PAM Maximal response, Elfn1; for Fold potentiation, Elfn1: fold potentiation of an EC20 concentration of L-AP4
T2 construct: expressed in transfected cells; host or cells: HEK293A mGlu7/GIRK cells cocultured with HEK293A polyclonal cells stably expressing Elfn1-Myc (pcDNA3)
Text: as §1, §2
HEK293A polyclonal cells stably expressing either Elfn1 or empty vector were passaged in media (Dulbecco’s modified Eagle medium (DMEM), supplemented with 10% fetal bovine serum (FBS), 20 mM N-(2-hydroxyethyl)-piperazine-N′-ethanesulfonic acid (HEPES), 1 mM Na pyruvate, 2 mM Glutamax, 0.1 mM nonessential amino acids, 1× antibiotic/antimycotic) under G418 (700 μg/mL) selection to maintain expression.
as §3
as §4, with “NJ). Data were acquired at 1 Hz (excitation 470 ± 20 nm, emission 540 ± 30 nm) for 10 s, followed by the addition of 20 μL/well of 10 μM NAM/PAM/DMSO, followed by an additional 4 min of data collection.” for “NJ).”, “Prism.” for “Prism. Basal activity was calculated with data points at the three lowest test concentrations. Maximum activity was calculated with data points at two highest concentrations. All experiments were replicated at least three times in duplicate or triplicate.”

[1] = 10 μM PAM, L-AP4 CRC, normalized to percent L-AP4 response with pcDNA and DMSO
[2] = PAM concentration-response at an EC20 concentration of L-AP4
[3] = 10 μM NAM, three lowest L-AP4 concentrations, normalized to mGlu7/pcDNA3 vehicle L-AP4 max

T2 sequence (P35400 35-915): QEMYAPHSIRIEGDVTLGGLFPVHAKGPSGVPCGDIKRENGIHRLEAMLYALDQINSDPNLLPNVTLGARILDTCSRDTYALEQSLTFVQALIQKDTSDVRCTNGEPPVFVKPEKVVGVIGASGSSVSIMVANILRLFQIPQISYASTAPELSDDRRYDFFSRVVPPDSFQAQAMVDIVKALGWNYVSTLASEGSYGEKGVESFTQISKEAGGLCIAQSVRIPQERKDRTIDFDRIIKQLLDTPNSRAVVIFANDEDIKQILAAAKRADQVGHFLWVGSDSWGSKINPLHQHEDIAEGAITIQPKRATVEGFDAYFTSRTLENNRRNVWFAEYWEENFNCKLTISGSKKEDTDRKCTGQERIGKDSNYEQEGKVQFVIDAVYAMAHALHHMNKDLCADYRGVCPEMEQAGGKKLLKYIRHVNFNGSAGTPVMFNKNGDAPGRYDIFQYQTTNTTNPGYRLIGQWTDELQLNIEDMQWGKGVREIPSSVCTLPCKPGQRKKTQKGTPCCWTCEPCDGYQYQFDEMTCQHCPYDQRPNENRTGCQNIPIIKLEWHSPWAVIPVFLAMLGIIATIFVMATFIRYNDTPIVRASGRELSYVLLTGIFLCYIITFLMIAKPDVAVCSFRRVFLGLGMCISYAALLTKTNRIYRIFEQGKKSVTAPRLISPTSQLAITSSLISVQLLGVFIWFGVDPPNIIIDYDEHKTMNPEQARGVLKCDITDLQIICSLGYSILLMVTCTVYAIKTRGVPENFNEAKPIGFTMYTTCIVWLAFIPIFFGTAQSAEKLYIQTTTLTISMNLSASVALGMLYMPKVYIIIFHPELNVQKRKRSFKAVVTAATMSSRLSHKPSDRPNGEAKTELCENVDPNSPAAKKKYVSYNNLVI
T2 sequence (Q8C8T7 26-828 partner): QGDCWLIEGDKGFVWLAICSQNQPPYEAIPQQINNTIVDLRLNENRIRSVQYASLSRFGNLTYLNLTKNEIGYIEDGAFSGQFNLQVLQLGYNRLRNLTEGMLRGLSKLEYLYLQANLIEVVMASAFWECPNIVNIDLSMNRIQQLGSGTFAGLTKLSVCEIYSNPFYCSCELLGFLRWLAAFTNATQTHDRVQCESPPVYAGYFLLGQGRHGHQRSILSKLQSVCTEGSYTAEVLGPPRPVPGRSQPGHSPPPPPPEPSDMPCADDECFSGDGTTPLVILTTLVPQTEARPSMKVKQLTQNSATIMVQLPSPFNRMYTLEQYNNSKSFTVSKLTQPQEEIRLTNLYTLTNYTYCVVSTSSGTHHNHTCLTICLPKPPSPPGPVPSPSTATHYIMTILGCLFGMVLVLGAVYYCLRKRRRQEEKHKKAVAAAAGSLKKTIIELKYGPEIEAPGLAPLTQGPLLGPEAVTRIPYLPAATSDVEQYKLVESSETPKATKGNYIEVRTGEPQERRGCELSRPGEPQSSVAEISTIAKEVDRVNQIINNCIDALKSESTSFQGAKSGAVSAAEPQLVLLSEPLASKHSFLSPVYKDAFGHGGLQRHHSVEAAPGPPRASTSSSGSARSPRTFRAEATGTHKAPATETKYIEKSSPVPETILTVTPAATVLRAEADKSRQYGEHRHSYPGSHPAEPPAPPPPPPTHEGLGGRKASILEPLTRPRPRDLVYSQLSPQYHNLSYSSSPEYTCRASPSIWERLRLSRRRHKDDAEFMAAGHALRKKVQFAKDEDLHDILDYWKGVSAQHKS
T1 sequence (P35400 35-915): as the sequence (P35400 35-915) above

## CCc1nc2c(o1)CC(c1ccc(C)cc1C)CC2=O (centres unmarked) [ADX71743, reference compound]
Rat mGlu7
  baseline Resp ± SEM, pcDNA: –21.5 ± 2.0 %
  Maximal Resp ± SEM, pcDNA: –0.08 ± 1.4 %
  response below baseline at inactive L-AP4 concentrations: inverse agonist activity
  % inhibition Resp ± SEM, pcDNA: –0.11 ± 1.4%
  IC50: 195 nM
  compound Min Resp ± SEM, pcDNA: –32.9 ± 8.0
mGlu7/Elfn1
  baseline Resp ± SEM, Elfn1: –12.7 ± 2.9 %
  Maximal Resp ± SEM, Elfn1: –10.1 ± 1.7 %
  % inhibition Resp ± SEM, Elfn1: –22.4 ± 3.4 %
  IC50: 141 nM
  compound Min Resp ± SEM, Elfn1: –28.5 ± 5.5

## COC(=O)c1ccc(-n2c(C)cc(C(=O)CSc3ccc(NC(C)=O)cc3)c2C)cc1 [VU0155094]
Rat mGlu7; [1]
  baseline response ± SEM, pcDNA: 6.4±2.3%
Rat mGlu7
  Emax: 138 ± 5.2%
  Fold potentiation, pcDNA: 4.4±0.3 fold
Rat mGlu7; read-out: PAM pEC50, pcDNA (converted)
  EC50: 3550 nM
mGlu7/Elfn1; [1]
  baseline response ± SEM, Elfn1: 1.0±1.7%
mGlu7/Elfn1; [2]
  Emax: 66.3 ± 3.6%
mGlu7/Elfn1; PAM concentration-response at an EC20 concentration of L-AP4, read-out: PAM pEC50, Elfn1 (converted)
  EC50: 2820 nM
mGlu7/Elfn1
  Fold potentiation, Elfn1: 2.7±0.2 fold

## COc1ccc(C(=O)Nc2cc(OC(F)(F)F)ccc2-n2cncn2)cc1OC [VU6010608]
Rat mGlu7; [3]
  baseline response ± SEM, pcDNA: –14.5 ± 2.6
mGlu7/Elfn1; [3]
  baseline response ± SEM, Elfn1: –9.0 ± 0.9

## CCCOc1ccc(C(=O)Nc2cc(OC(F)(F)F)ccc2-n2cncn2)cc1OC [VU6010953]
Rat mGlu7; [3]
  baseline response ± SEM, pcDNA: –12.5 ± 2.2
mGlu7/Elfn1; [3]
  baseline response ± SEM, Elfn1: –8.1 ± 1.1

## COc1cc(C(=O)Nc2cc(OC(F)(F)F)ccc2-n2cncn2)ccc1OCC1CC1 [VU6012962, N-(2-(1 H-1,2,4-triazol-1-yl)-5-(trifluoromethoxy)phenyl)-4-(cyclopropylmethoxy)-3-methox ybenzamide]
Rat mGlu7; [3]
  baseline response ± SEM, pcDNA: –19.1 ± 2.4
mGlu7/Elfn1; [3]
  baseline response ± SEM, Elfn1: –8.1 ± 2.0

## COc1ccc(-c2noc(-c3cc(Cl)ccc3-n3cncn3)n2)cc1OC [VU6017743]
Rat mGlu7; [3]
  baseline response ± SEM, pcDNA: –11.5 ± 4.7
mGlu7/Elfn1; [3]
  baseline response ± SEM, Elfn1: –5.7 ± 5.9

## COc1ccc(-c2cnc(-c3cc(OC(F)(F)F)ccc3-n3cncn3)o2)cc1OC [VU6018226]
Rat mGlu7; [3]
  baseline response ± SEM, pcDNA: –6.6 ± 1.8
mGlu7/Elfn1; [3]
  baseline response ± SEM, Elfn1: 0.2 ± 3.5

## COc1ccc(-c2nnc(-c3cc(OC(F)(F)F)ccc3-c3cn[nH]c3)o2)cc1OC [VU6019282]
Rat mGlu7; [3]
  baseline response ± SEM, pcDNA: –5.3 ± 3.7
mGlu7/Elfn1; [3]
  baseline response ± SEM, Elfn1: –0.7 ± 4.5

## COc1cc(F)cc2c(N3CCN(c4ccccc4F)CC3)c(C#N)cnc12 [VU6027459]
Rat mGlu7; [1]
  baseline response ± SEM, pcDNA: 25.6±12.0%
Rat mGlu7
  Emax: 75.8 ± 5.2%
  Fold potentiation, pcDNA: 3.0±0.4 fold
Rat mGlu7; PAM pEC50, pcDNA
  EC50: 1000 nM
mGlu7/Elfn1; [1]
  baseline response ± SEM, Elfn1: 12.5±8.4%
mGlu7/Elfn1; [2]
  Emax: 44.1 ± 4.5%
mGlu7/Elfn1; PAM pEC50, Elfn1, PAM concentration-response at an EC20 concentration of L-AP4
  EC50: 1620 nM
mGlu7/Elfn1
  Fold potentiation, Elfn1: 2.0±0.2 fold

## O=c1c(Oc2ccc(I)cc2)coc2cc(O)ccc12 [XAP044, reference compound]
Rat mGlu7
  baseline Resp ± SEM, pcDNA: –11.4 ± 4.8 %
  Maximal Resp ± SEM, pcDNA: 1.7 ± 3.6 %
  response below baseline at inactive L-AP4 concentrations: inverse agonist activity
  % inhibition Resp ± SEM, pcDNA: 1.6 ± 3.5%
  IC50: 1660 nM
  compound Min Resp ± SEM, pcDNA: 6.9 ± 6.5
mGlu7/Elfn1
  baseline Resp ± SEM, Elfn1: –6.5 ± 1.3 %
  Maximal Resp ± SEM, Elfn1: –13.2 ± 1.7 %
  % inhibition Resp ± SEM, Elfn1: –30.4 ± 2.9 %
  IC50: 380 nM
  compound Min Resp ± SEM, Elfn1: 2.5 ± 8.4
